{"source": "patent US9957173B2", "about": "“Treatment of water” (BWA WATER ADDITIVES UK LIMITED, priority 2015, dated 2018)", "key": {"Enterobacter aerogenes": {"system": "Enterobacter aerogenes", "experiment": "Log10 reduction in viable count of facultative anaerobes after treatment of inoculated high-TDS aqueous system", "type": "cell-based", "conditions": "for Log10 Reduction Facultative Anaerobes: TDS 30,000 mg l^−1, 8 = complete kill", "description": "(§1) Aqueous systems inoculated with anaerobe and facultative anaerobe culture and having a total dissolved solids (TDS) concentration of 30,000 mg l^−1 were prepared and treated with treatment agents comprising: (a) a phosphonium compound and (b) a nitro compound. The phosphonium compound (a) used was tri n-butyl n-tetradecyl phosphonium chloride (TTPC). The nitro compound (b) used was 2-hydroxymethyl-2-nitro-1,3-propanediol (THNM).\n(§2) A suspension of Desulfovibrio vulgaris plus Enterobacter aerogenes bacteria containing from 1×10^5 to 1×10^6 cells/mL was prepared in sterile pH 8 phosphate buffer containing sodium chloride to give the desired total dissolved solids (TDS) concentration. Aliquots of this suspension were dosed with the indicated concentrations of the compounds (a) and (b) with the concentrations being measured as ppm. The mixtures were allowed to stand at room temperature. At the designated contact times, each mixture was sampled to determine the total number of viable cells of both Desulfovibrio vulgaris and Enterobacter aerogenes by serial 10-fold dilution into API RP 38 media vials and anaerobic acid producing media vials, respectively. The vials were incubated at 37° C. for 72 hours. Results were recorded as log10 reduction in the viable count versus the control.\n(§3) The efficacy of the treatment agents was evaluated by measuring the Log10 Reduction of the anaerobic bacterium Desulfovibrio vulgaris and the facultative anaerobic bacterium Enterobacter aerogenes after contact times of 1 hour, 4 hours and 24 hours as detailed in Table 1. For TTPC the stated ppm value relates to the amount of TTPC added (active). For the THNM the stated ppm relates to the amount of THNM added (active)."}, "Desulfovibrio vulgaris": {"system": "Desulfovibrio vulgaris", "experiment": "Log10 reduction in viable count of anaerobes after treatment of inoculated high-TDS aqueous system", "type": "cell-based", "conditions": "for Log10 Reduction Anaerobes: TDS 30,000 mg l^−1, 5 = complete kill", "description": "as §1, §2, §3"}, "[1]": {"conditions": "Example 3: THNM 75 ppm active alone, contact time 1 hour"}, "[2]": {"conditions": "Example 4: THNM 150 ppm active alone, contact time 1 hour"}, "[3]": {"conditions": "Example 11: THNM 75 ppm active alone, contact time 4 hours"}, "[4]": {"conditions": "Example 12: THNM 150 ppm active alone, contact time 4 hours"}, "[5]": {"conditions": "Example 19: THNM 75 ppm active alone, contact time 24 hours"}, "[6]": {"conditions": "Example 20: THNM 150 ppm active alone, contact time 24 hours"}, "[7]": {"conditions": "THNM alone, even at concentrations of 150 ppm"}, "[8]": {"conditions": "Example 1: TTPC 3.125 ppm active alone, contact time 1 hour"}, "[9]": {"conditions": "Example 2: TTPC 6.25 ppm active alone, contact time 1 hour"}, "[10]": {"conditions": "Example 9: TTPC 3.125 ppm active alone, contact time 4 hours"}, "[11]": {"conditions": "Example 10: TTPC 6.25 ppm active alone, contact time 4 hours"}, "[12]": {"conditions": "Example 17: TTPC 3.125 ppm active alone, contact time 24 hours"}, "[13]": {"conditions": "Example 18: TTPC 6.25 ppm active alone, contact time 24 hours"}}, "data": [{"molecule": "O=[N+]([O-])C(CO)(CO)CO", "note": "[THNM, 2-hydroxymethyl-2-nitro-1,3-propanediol]", "values": [{"measurement": "Log10 Reduction Facultative Anaerobes", "setting": "Enterobacter aerogenes; [1]", "result": 0}, {"measurement": "Log10 Reduction Facultative Anaerobes", "setting": "Enterobacter aerogenes; [2]", "result": 0}, {"measurement": "Log10 Reduction Facultative Anaerobes", "setting": "Enterobacter aerogenes; [3]", "result": 0}, {"measurement": "Log10 Reduction Facultative Anaerobes", "setting": "Enterobacter aerogenes; [4]", "result": 0}, {"measurement": "Log10 Reduction Facultative Anaerobes", "setting": "Enterobacter aerogenes; [5]", "result": 0}, {"measurement": "Log10 Reduction Facultative Anaerobes", "setting": "Enterobacter aerogenes; [6]", "result": 0}, {"measurement": "effect on facultative anaerobes", "setting": "Enterobacter aerogenes; [7]", "result": "no affect"}, {"measurement": "Log10 Reduction Anaerobes", "setting": "Desulfovibrio vulgaris; [1]", "result": 0}, {"measurement": "Log10 Reduction Anaerobes", "setting": "Desulfovibrio vulgaris; [2]", "result": 0}, {"measurement": "Log10 Reduction Anaerobes", "setting": "Desulfovibrio vulgaris; [3]", "result": 0}, {"measurement": "Log10 Reduction Anaerobes", "setting": "Desulfovibrio vulgaris; [4]", "result": 0}, {"measurement": "Log10 Reduction Anaerobes", "setting": "Desulfovibrio vulgaris; [5]", "result": 0}, {"measurement": "Log10 Reduction Anaerobes", "setting": "Desulfovibrio vulgaris; [6]", "result": 0}, {"measurement": "effect on anaerobes", "setting": "Desulfovibrio vulgaris; [7]", "result": "no affect"}]}, {"molecule": "CCCCCCCCCCCCCC[P+](CCCC)(CCCC)CCCC.[Cl-]", "note": "[TTPC, tri n-butyl n-tetradecyl phosphonium chloride]", "values": [{"measurement": "Log10 Reduction Facultative Anaerobes", "setting": "Enterobacter aerogenes; [8]", "result": 1}, {"measurement": "Log10 Reduction Facultative Anaerobes", "setting": "Enterobacter aerogenes; [9]", "result": 3}, {"measurement": "Log10 Reduction Facultative Anaerobes", "setting": "Enterobacter aerogenes; [10]", "result": 2}, {"measurement": "Log10 Reduction Facultative Anaerobes", "setting": "Enterobacter aerogenes; [11]", "result": 4}, {"measurement": "Log10 Reduction Facultative Anaerobes", "setting": "Enterobacter aerogenes; [12]", "result": 3}, {"measurement": "Log10 Reduction Facultative Anaerobes", "setting": "Enterobacter aerogenes; [13]", "result": 5}, {"measurement": "Log10 Reduction Anaerobes", "setting": "Desulfovibrio vulgaris; [8]", "result": 0}, {"measurement": "Log10 Reduction Anaerobes", "setting": "Desulfovibrio vulgaris; [9]", "result": 1}, {"measurement": "Log10 Reduction Anaerobes", "setting": "Desulfovibrio vulgaris; [10]", "result": 5}, {"measurement": "Log10 Reduction Anaerobes", "setting": "Desulfovibrio vulgaris; [11]", "result": 5}, {"measurement": "Log10 Reduction Anaerobes", "setting": "Desulfovibrio vulgaris; [12]", "result": 5}, {"measurement": "Log10 Reduction Anaerobes", "setting": "Desulfovibrio vulgaris; [13]", "result": 5}]}]}
